Test results taken from patent publication US11136301B2, “Broad spectrum antiviral compounds and uses thereof” (The Regents Of The University Of California, priority 2015, dated 2021).
“Also recorded” adds a separate entry of the source. Read-outs that look alike come from different tables or passages of the source.

Experiments:
[1] = test system: wild-type HIV-1 (HIV-1LAI) in MT-4 cells (permissive); assay: Antiviral activity assay: wild-type HIV-1 in permissive MT4 cells, reverse transcriptase activity in culture supernatants; format: cell-based
[2] = test system: HA-tagged A3G and GFP-tagged Vif or ΔVif in 293FT cells; assay: Immunoblot of A3G and Vif levels in transfected 293FT cells; conditions: 293FT cells, 50 μM, 16 h
[3] = test system: wild-type HIV-1 (HIV-1LAI) in H9 cells (non-permissive); assay: microbe, parasite or virus in culture; format: cell-based
[4] = Human immunodeficiency virus 1, MT4, Table 2, wild-type HIV-1, permissive MT4 cells, read-out: Antiviral activity (IC50 μM) MT4
[5] = Human immunodeficiency virus 1, MT4, wild-type HIV-1 (HIV-1LAI), MT4 cells (permissive), RT activity in culture supernatants, compounds 1 to 50 μM, read-out: Antiviral activity (IC50 μM) MT4 cells
[6] = Human immunodeficiency virus 1, H9, read-out: Antiviral activity (IC50 μM) H9, Table 2, wild-type HIV-1, non-permissive H9 cells
[7] = Human immunodeficiency virus 1, H9, read-out: Antiviral activity (IC50 μM) H9 Cells, Table 4, wild-type HIV-1, non-permissive H9 cells
[8] = Human immunodeficiency virus 1, H9, read-out: Antiviral activity (IC50 μM) H9 Cells, Table 7, wild-type HIV-1, non-permissive H9 cells
[9] = Human immunodeficiency virus 1, H9, read-out: Antiviral activity (IC50 μM) H9 cells, Table 5, wild-type HIV-1, non-permissive H9 cells
[10] = Human immunodeficiency virus 1, H9, read-out: Antiviral activity (IC50 μM) H9 cells, Table 8, wild-type HIV-1, non-permissive H9 cells
[11] = Human immunodeficiency virus 1, H9, read-out: Antiviral activity (IC50 μM) H9 cells, wild-type HIV-1 (HIV-1LAI), H9 cells (non-permissive), RT activity in culture supernatants, compounds 1 to 50 μM
[12] = Human immunodeficiency virus 1, H9, read-out: IC50, anti-HIV-1 activity, non-permissive H9 cells

COc1ccccc1-n1cc(-c2ccccc2Sc2ccc(C(F)(F)F)cc2)nn1 [Compound 2dx, 1-(2-Methoxyphenyl)-4-(2-((4-(trifluoromethyl)phenyl)thio)phenyl)-1H-1,2,3-triazole]
IC50 [1, 4]: > 50 µM
IC50 [1, 5]: > 50 µM
upregulation of A3G and downregulation of Vif (immunoblots, FIG. 16) [2]: same mechanism as of RN-18; also recorded: same mechanism as observed for RN-18 and 1d
IC50 [3, 6]: 2.6 µM
IC50 [3, 7]: 2.6 µM
IC50 [3, 8]: 2.6 µM
IC50 [3, 9]: 2.6 µM
IC50 [3, 10]: 2.6 µM
IC50 [3, 11]: 2.6 µM
IC50 [3, 12]: 1 to 3 µM

COc1ccccc1-n1cc(-c2ccccc2S(=O)(=O)c2ccc(N)cc2)nn1 [Compound 2ey, 4-((2-(1-(2-Methoxyphenyl)-1H-1,2,3-triazol-4-yl)phenyl)sulfonyl)aniline]
IC50 [1, 4]: > 50 µM
IC50 [1, 5]: > 50 µM
upregulation of A3G and downregulation of Vif (immunoblots, FIG. 16) [2]: same mechanism as of RN-18; also recorded: same mechanism as observed for RN-18 and 1d
IC50 [3, 6]: 0.4 µM
IC50 [3, 7]: 0.4 µM
IC50 [3, 8]: 0.4 µM
IC50 [3, 9]: 0.4 µM
IC50 [3, 10]: 0.4 µM
IC50 [3, 11]: 0.4 µM
IC50 [3, 12]: 0.4 µM

COc1ccc(OC)c(-n2cc(-c3ccccc3Sc3ccc([N+](=O)[O-])cc3)nn2)c1 [Compound 5ax, 1-(2,5-Dimethoxyphenyl)-4-(2-((4-nitrophenyl)thio)phenyl)-1H-1,2,3-triazole]
IC50 [1, 4]: > 50 µM
IC50 [1, 5]: > 50 µM
upregulation of A3G and downregulation of Vif (immunoblots, FIG. 16) [2]: same mechanism as of RN-18; also recorded: same mechanism as observed for RN-18 and 1d
fold more potent than the original lead molecule RN-18 ([3]; H9 cells, IC50 compared with RN-18): about 1000 fold
IC50 [3, 6]: 0.01 µM
IC50 [3, 7]: 0.01 µM
IC50 [3, 8]: 0.01 µM
IC50 [3, 9]: 0.01 µM
IC50 [3, 10]: 0.01 µM
IC50 [3, 11]: 0.01 µM
IC50 [3, 12]: 0.01 µM

COc1ccc(OC)c(-n2cc(-c3ccccc3S(=O)(=O)c3ccc(N)cc3)nn2)c1 [Compound 5ey, 4-((2-(1-(2,5-Dimethoxyphenyl)-1H-1,2,3-triazol-4-yl)phenyl)sulfonyl)aniline]
IC50 [1, 4]: > 50 µM
IC50 [1, 5]: > 50 µM
upregulation of A3G and downregulation of Vif (immunoblots, FIG. 16) [2]: same mechanism as of RN-18; also recorded: same mechanism as observed for RN-18 and 1d
IC50 [3, 6]: 0.6 µM
IC50 [3, 7]: 0.6 µM
IC50 [3, 8]: 0.6 µM
IC50 [3, 9]: 0.6 µM
IC50 [3, 10]: 0.6 µM
IC50 [3, 11]: 0.6 µM

COc1cccc(OC)c1-n1cc(-c2ccccc2S(=O)(=O)c2ccc([N+](=O)[O-])cc2)nn1 [Compound 6ay, 1-(2,6-Dimethoxyphenyl)-4-(2-((4-nitrophenyl)sulfonyl)phenyl)-1H-1,2,3-triazole]
IC50 [1, 4]: > 50 µM
IC50 [1, 5]: > 50 µM
IC50 [3, 6]: > 50 µM
IC50 [3, 9]: > 50 µM
IC50 [3, 10]: > 50 µM
IC50 [3, 11]: > 50 µM

COC(=O)c1ccc(S(=O)(=O)c2ccccc2-c2cn(-c3c(OC)cccc3OC)nn2)cc1 [Compound 6by, Methyl 4-((2-(1-(2,6-dimethoxyphenyl)-1H-1,2,3-triazol-4-yl)phenyl)sulfonyl)benzoate]
IC50 [1, 4]: > 50 µM
IC50 [1, 5]: > 50 µM
IC50 [3, 6]: > 50 µM
IC50 [3, 9]: > 50 µM
IC50 [3, 10]: > 50 µM
IC50 [3, 11]: > 50 µM

COc1ccc(S(=O)(=O)c2ccccc2-c2cn(-c3c(OC)cccc3OC)nn2)cc1 [Compound 6cy, 1-(2,6-Dimethoxyphenyl)-4-(2-((4-methoxyphenyl)sulfonyl)phenyl)-1H-1,2,3-triazole]
IC50 [1, 4]: > 50 µM
IC50 [1, 5]: > 50 µM
IC50 [3, 6]: > 50 µM
IC50 [3, 9]: > 50 µM
IC50 [3, 10]: > 50 µM
IC50 [3, 11]: > 50 µM

COc1cccc(OC)c1-n1cc(-c2ccccc2S(=O)(=O)c2ccc(N)cc2)nn1 [Compound 6ey, 4-((2-(1-(2,6-Dimethoxyphenyl)-1H-1,2,3-triazol-4-yl)phenyl)sulfonyl)aniline]
IC50 [1, 4]: > 50 µM
IC50 [1, 5]: > 50 µM
IC50 [3, 6]: 1.5 µM
IC50 [3, 7]: 1.5 µM
IC50 [3, 8]: 1.5 µM
IC50 [3, 9]: 1.5 µM
IC50 [3, 10]: 1.5 µM
IC50 [3, 11]: 1.5 µM
IC50 [3, 12]: 1 to 3 µM

COc1cccc(OC)c1-n1cc(-c2ccccc2Sc2ccc(C(=O)O)cc2)nn1 [Compound 6fx, 4-((2-(1-(2,6-Dimethoxyphenyl)-1H-1,2,3-triazol-4-yl)phenyl)thio)benzoic Acid]
IC50 [1, 4]: > 50 µM
IC50 [1, 5]: > 50 µM
IC50 [3, 6]: 1.9 µM
IC50 [3, 7]: 1.9 µM
IC50 [3, 8]: 1.9 µM
IC50 [3, 9]: 1.9 µM
IC50 [3, 10]: 1.9 µM
IC50 [3, 11]: 1.9 µM
IC50 [3, 12]: 1 to 3 µM

COc1cccc(OC)c1-n1cc(-c2ccccc2S(=O)(=O)c2ccc(C(=O)O)cc2)nn1 [Compound 6fy, 4-((2-(1-(2,6-Dimethoxyphenyl)-1H-1,2,3-triazol-4-yl)phenyl)sulfonyl)benzoic Acid]
IC50 [1, 4]: > 50 µM
IC50 [1, 5]: > 50 µM
IC50 [3, 6]: 1.2 µM
IC50 [3, 7]: 1.2 µM
IC50 [3, 8]: 1.2 µM
IC50 [3, 9]: 1.2 µM
IC50 [3, 10]: 1.2 µM
IC50 [3, 11]: 1.2 µM
IC50 [3, 12]: 1 to 3 µM

COc1cccc(F)c1-n1cc(-c2ccccc2Sc2ccc([N+](=O)[O-])cc2)nn1 [Compound 7ax, 1-(2-Fluoro-6-methoxyphenyl)-4-(2-((4-nitrophenyl)thio)phenyl)-1H-1,2,3-triazole]
IC50 [1, 4]: > 50 µM
IC50 [1, 5]: > 50 µM
IC50 [3, 6]: 3.9 µM
IC50 [3, 7]: 3.9 µM
IC50 [3, 8]: 3.9 µM
IC50 [3, 9]: 3.9 µM
IC50 [3, 10]: 3.9 µM
IC50 [3, 11]: 3.9 µM

COc1cccc(F)c1-n1cc(-c2ccccc2S(=O)(=O)c2ccc([N+](=O)[O-])cc2)nn1 [Compound 7ay, 1-(2-Fluoro-6-methoxyphenyl)-4-(2-((4-nitrophenyl)sulfonyl)phenyl)-1H-1,2,3-triazole]
IC50 [1, 4]: > 50 µM
IC50 [1, 5]: > 50 µM
IC50 [3, 6]: > 50 µM
IC50 [3, 9]: > 50 µM
IC50 [3, 10]: > 50 µM
IC50 [3, 11]: > 50 µM

COC(=O)c1ccc(Sc2ccccc2-c2cn(-c3c(F)cccc3OC)nn2)cc1 [Compound 7bx, Methyl 4-((2-(1-(2-fluoro-6-methoxyphenyl)-1H-1,2,3-triazol-4-yl)phenyl)thio)benzoate]
IC50 [1, 4]: > 50 µM
IC50 [1, 5]: > 50 µM
IC50 [3, 6]: 7.8 µM
IC50 [3, 7]: 7.8 µM
IC50 [3, 8]: 7.8 µM
IC50 [3, 9]: 7.8 µM
IC50 [3, 10]: 7.8 µM
IC50 [3, 11]: 7.8 µM

COc1ccc(S(=O)(=O)c2ccccc2-c2cn(-c3c(F)cccc3OC)nn2)cc1 [Compound 7cy, 1-(2-Fluoro-6-methoxyphenyl)-4-(2-((4-methoxyphenyl)sulfonyl)phenyl)-1H-1,2,3-triazole]
IC50 [1, 4]: > 50 µM
IC50 [1, 5]: > 50 µM
IC50 [3, 6]: > 50 µM
IC50 [3, 9]: > 50 µM
IC50 [3, 10]: > 50 µM
IC50 [3, 11]: > 50 µM

COc1cccc(F)c1-n1cc(-c2ccccc2S(=O)(=O)c2ccc(C(F)(F)F)cc2)nn1 [Compound 7dy, 1-(2-Fluoro-6-methoxyphenyl)-4-(2-((4-(trifluoromethyl)phenyl)sulfonyl)phenyl)-1H-1,2,3-triazole]
IC50 [1, 4]: > 50 µM
IC50 [1, 5]: > 50 µM
IC50 [3, 6]: > 50 µM
IC50 [3, 9]: > 50 µM
IC50 [3, 10]: > 50 µM
IC50 [3, 11]: > 50 µM

COc1cccc(F)c1-n1cc(-c2ccccc2Sc2ccc(N)cc2)nn1 [Compound 7ex, 4-((2-(1-(2-Fluoro-6-methoxyphenyl)-1H-1,2,3-triazol-4-yl)phenyl)thio)aniline]
IC50 [1, 4]: > 50 µM
IC50 [1, 5]: > 50 µM
IC50 [3, 6]: > 50 µM
IC50 [3, 9]: > 50 µM
IC50 [3, 10]: > 50 µM
IC50 [3, 11]: > 50 µM

COc1cccc(F)c1-n1cc(-c2ccccc2S(=O)(=O)c2ccc(N)cc2)nn1 [Compound 7ey, 4-((2-(1-(2-Fluoro-6-methoxyphenyl)-1H-1,2,3-triazol-4-yl)phenyl)sulfonyl)aniline]
IC50 [1, 4]: > 50 µM
IC50 [1, 5]: > 50 µM
IC50 [3, 6]: 15 µM
IC50 [3, 7]: 15 µM
IC50 [3, 8]: 15 µM
IC50 [3, 9]: 15 µM
IC50 [3, 10]: 15 µM
IC50 [3, 11]: 15 µM

COc1cccc(F)c1-n1cc(-c2ccccc2Sc2ccc(C(=O)O)cc2)nn1 [Compound 7fx, 4-((2-(1-(2-Fluoro-6-methoxyphenyl)-1H-1,2,3-triazol-4-yl)phenyl)thio)benzoic Acid]
IC50 [1, 4]: > 50 µM
IC50 [1, 5]: > 50 µM
IC50 [3, 6]: 4.9 µM
IC50 [3, 7]: 4.9 µM
IC50 [3, 8]: 4.9 µM
IC50 [3, 9]: 4.9 µM
IC50 [3, 10]: 4.9 µM
IC50 [3, 11]: 4.9 µM

COc1cccc(F)c1-n1cc(-c2ccccc2S(=O)(=O)c2ccc(C(=O)O)cc2)nn1 [Compound 7fy, 4-((2-(1-(2-Fluoro-6-methoxyphenyl)-1H-1,2,3-triazol-4-yl)phenyl)sulfonyl)benzoic Acid]
IC50 [1, 4]: > 50 µM
IC50 [1, 5]: > 50 µM
IC50 [3, 6]: > 50 µM
IC50 [3, 9]: > 50 µM
IC50 [3, 10]: > 50 µM
IC50 [3, 11]: > 50 µM
